According to US4401604A, “Process for preparing thiosulfenamide derivatives of N-phosphonomethylglycine triesters” (Monsanto Company, priority 1981, dated 1983):

Key:
Type in all cases: in vivo
Wheat = assay: Post-emergence herbicidal activity, greenhouse; details: Table II
How it was run: (§1)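 2–3-week-old plants, post-emergence atomizer spray, ~0.4% emulsifier; candidate from 1.0% stock in acetone, THF or water. Greenhouse hold; injury vs control at ~2/4 WAT.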

Cocklebur [1] = assay: Post-emergence herbicidal activity, greenhouse
How it was run: as §1

Canada Thistle [2] = assay: Post-emergence herbicidal activity, greenhouse; details: Table I, 4 WAT
How it was run: as §1

Sugar Beet = assay: Post-emergence herbicidal activity, greenhouse; details: Table II
How it was run: as §1

Sorghum = assay: Post-emergence herbicidal activity, greenhouse; details: Table II
How it was run: as §1

Quackgrass [3] = assay: Post-emergence herbicidal activity, greenhouse; details: Table I, 4 WAT
How it was run: as §1

Velvetleaf [4] = assay: Post-emergence herbicidal activity, greenhouse
How it was run: as §1

Panicum Spp = assay: Post-emergence herbicidal activity, greenhouse; details: Table II
How it was run: as §1

Downy Brome [5] = assay: Post-emergence herbicidal activity, greenhouse
How it was run: as §1

Smartweed [6] = assay: Post-emergence herbicidal activity, greenhouse
How it was run: as §1

Soybean = assay: Post-emergence herbicidal activity, greenhouse; details: Table II
How it was run: as §1

Wild Buckwheat = assay: Post-emergence herbicidal activity, greenhouse; details: Table II
How it was run: as §1

Crabgrass = assay: Post-emergence herbicidal activity, greenhouse; details: Table II
How it was run: as §1

Rice = assay: Post-emergence herbicidal activity, greenhouse; details: Table II
How it was run: as §1

Morningglory [7] = assay: Post-emergence herbicidal activity, greenhouse
How it was run: as §1

Lambsquarters [8] = assay: Post-emergence herbicidal activity, greenhouse
How it was run: as §1

Hemp Sesbania = assay: Post-emergence herbicidal activity, greenhouse; details: Table II
How it was run: as §1

Johnsongrass [9] = assay: Post-emergence herbicidal activity, greenhouse; details: Table I, 4 WAT
How it was run: as §1

Yellow Nutsedge [10] = assay: Post-emergence herbicidal activity, greenhouse; details: Table I, 4 WAT
How it was run: as §1

Barnyardgrass [11] = assay: Post-emergence herbicidal activity, greenhouse
How it was run: as §1

Cocklebur [12] = assay: Pre-emergent herbicidal activity; details: Table III; 11.2 kg/h; 2 WAT
From the text: (§2) A good grade of top soil is placed in aluminum pans and compacted to a depth of 0.95 to 1.27 cm. from the top of each pan. A predetermined number of seeds or vegetative propagules of each of several plant species are placed on top of the soil in each pan and then pressed down. Herbicidal compositions prepared as in the previous example are applied by admixture with or incorporation in the top layer of soil.
(§3) In this method, the soil required to cover the seeds and propagules is weighed and admixed with a herbicidal composition containing a known amount of the active ingredient (compound of this invention). The pans are then filled with the admixture and leveled. Watering is carried out by permitting the soil in the pans to absorb moisture through apertures in the pan bottoms. The seed and propagule containing pans are placed on a wet sand bench and maintained for approximately two weeks under ordinary conditions of sunlight and watering. At the end of this period, the number of emerged plants of each species is noted and compared to an untreated control.
(§4) The pre-emergent herbicidal activity index used below is based upon average percent control of each species as follows:
(§5) Plant species in the table are identified by the same code letters used in the previous example.

Canada Thistle [13] = assay: Pre-emergent herbicidal activity; details: Table III; 11.2 kg/h; 2 WAT
From the text: as §2, §3, §4, §5

Quackgrass [14] = assay: Pre-emergent herbicidal activity; details: Table III; 11.2 kg/h; 2 WAT
From the text: as §2, §3, §4, §5

Velvetleaf [15] = assay: Pre-emergent herbicidal activity; details: Table III; 11.2 kg/h; 2 WAT
From the text: as §2, §3, §4, §5

Downy Brome [16] = assay: Pre-emergent herbicidal activity; details: Table III; 11.2 kg/h; 2 WAT
From the text: as §2, §3, §4, §5

Smartweed [17] = assay: Pre-emergent herbicidal activity; details: Table III; 11.2 kg/h; 2 WAT
From the text: as §2, §3, §4, §5

Morningglory [18] = assay: Pre-emergent herbicidal activity; details: Table III; 11.2 kg/h; 2 WAT
From the text: as §2, §3, §4, §5

Lambsquarters [19] = assay: Pre-emergent herbicidal activity; details: Table III; 11.2 kg/h; 2 WAT
From the text: as §2, §3, §4, §5

Johnsongrass [20] = assay: Pre-emergent herbicidal activity; details: Table III; 11.2 kg/h; 2 WAT
From the text: as §2, §3, §4, §5

Yellow Nutsedge [21] = assay: Pre-emergent herbicidal activity; details: Table III; 11.2 kg/h; 2 WAT
From the text: as §2, §3, §4, §5

Barnyardgrass [22] = assay: Pre-emergent herbicidal activity; details: Table III; 11.2 kg/h; 2 WAT
From the text: as §2, §3, §4, §5

Structure (SMILES): O=C(CN(CP(=O)(Oc1ccccc1)Oc1ccccc1)SSCCc1ccccc1)OCc1ccccc1 [IV, Glycine, N-[(diphenoxyphosphinyl)methyl]-N-[(2-phenylethyl)dithio]-, phenylmethyl ester]
- post-emergence herbicidal activity index (Wheat; 0.28 kg/h, 2 WAT): 0 (0- 24% control)
- post-emergence herbicidal activity index (Wheat; 1.12 kg/h, 4 WAT): 1 (25-49% control)
- post-emergence herbicidal activity index (Wheat; 5.6 kg/h, 4 WAT): 3 (75-99% control)
- post-emergence herbicidal activity index (Cocklebur [1]; Table I, 5.6 kg/h, 4 WAT): 1 (25-49% control)
- post-emergence herbicidal activity index (Cocklebur [1]; Table I, 11.2 kg/h, 4 WAT): 3 (75-99% control)
- post-emergence herbicidal activity index (Cocklebur [1]; Table II, 0.28 kg/h, 2 WAT): 0 (0- 24% control)
- post-emergence herbicidal activity index (Cocklebur [1]; Table II, 1.12 kg/h, 4 WAT): 1 (25-49% control)
- post-emergence herbicidal activity index (Cocklebur [1]; Table II, 5.6 kg/h, 4 WAT): 3 (75-99% control)
- post-emergence herbicidal activity index (Canada Thistle [2]; 5.6 kg/h): 0 (0- 24% control)
- post-emergence herbicidal activity index (Canada Thistle [2]; 11.2 kg/h): 1 (25-49% control)
- post-emergence herbicidal activity index (Sugar Beet; 0.28 kg/h, 2 WAT): 0 (0- 24% control)
- post-emergence herbicidal activity index (Sugar Beet; 1.12 kg/h, 4 WAT): 3 (75-99% control)
- post-emergence herbicidal activity index (Sugar Beet; 5.6 kg/h, 4 WAT): 4 (100% control)
- post-emergence herbicidal activity index (Sorghum; 0.28 kg/h, 2 WAT): 0 (0- 24% control)
- post-emergence herbicidal activity index (Sorghum; 1.12 kg/h, 4 WAT): 0 (0- 24% control)
- post-emergence herbicidal activity index (Sorghum; 5.6 kg/h, 4 WAT): 2 (50-74% control)
- post-emergence herbicidal activity index (Quackgrass [3]; 5.6 kg/h): 2 (50-74% control)
- post-emergence herbicidal activity index (Quackgrass [3]; 11.2 kg/h): 1 (25-49% control)
- post-emergence herbicidal activity index (Velvetleaf [4]; Table I, 5.6 kg/h, 4 WAT): 0 (0- 24% control)
- post-emergence herbicidal activity index (Velvetleaf [4]; Table I, 11.2 kg/h, 4 WAT): 1 (25-49% control)
- post-emergence herbicidal activity index (Velvetleaf [4]; Table II, 0.28 kg/h, 2 WAT): 0 (0- 24% control)
- post-emergence herbicidal activity index (Velvetleaf [4]; Table II, 1.12 kg/h, 4 WAT): 0 (0- 24% control)
- post-emergence herbicidal activity index (Velvetleaf [4]; Table II, 5.6 kg/h, 4 WAT): 2 (50-74% control)
- post-emergence herbicidal activity index (Panicum Spp; 0.28 kg/h, 2 WAT): 0 (0- 24% control)
- post-emergence herbicidal activity index (Panicum Spp; 1.12 kg/h, 4 WAT): 0 (0- 24% control)
- post-emergence herbicidal activity index (Panicum Spp; 5.6 kg/h, 4 WAT): 3 (75-99% control)
- post-emergence herbicidal activity index (Downy Brome [5]; Table I, 5.6 kg/h, 4 WAT): 0 (0- 24% control)
- post-emergence herbicidal activity index (Downy Brome [5]; Table I, 11.2 kg/h, 4 WAT): 1 (25-49% control)
- post-emergence herbicidal activity index (Downy Brome [5]; Table II, 0.28 kg/h, 2 WAT): 0 (0- 24% control)
- post-emergence herbicidal activity index (Downy Brome [5]; Table II, 1.12 kg/h, 4 WAT): 0 (0- 24% control)
- post-emergence herbicidal activity index (Downy Brome [5]; Table II, 5.6 kg/h, 4 WAT): 3 (75-99% control)
- post-emergence herbicidal activity index (Smartweed [6]; Table I, 5.6 kg/h, 4 WAT): 1 (25-49% control)
- post-emergence herbicidal activity index (Smartweed [6]; Table I, 11.2 kg/h, 4 WAT): 2 (50-74% control)
- post-emergence herbicidal activity index (Smartweed [6]; Table II, 0.28 kg/h, 2 WAT): 0 (0- 24% control)
- post-emergence herbicidal activity index (Smartweed [6]; Table II, 1.12 kg/h, 4 WAT): 1 (25-49% control)
- post-emergence herbicidal activity index (Smartweed [6]; Table II, 5.6 kg/h, 4 WAT): 2 (50-74% control)
- post-emergence herbicidal activity index (Soybean; 0.28 kg/h, 2 WAT): 0 (0- 24% control)
- post-emergence herbicidal activity index (Soybean; 1.12 kg/h, 4 WAT): 0 (0- 24% control)
- post-emergence herbicidal activity index (Soybean; 5.6 kg/h, 4 WAT): 2 (50-74% control)
- post-emergence herbicidal activity index (Wild Buckwheat; 0.28 kg/h, 2 WAT): 0 (0- 24% control)
- post-emergence herbicidal activity index (Wild Buckwheat; 1.12 kg/h, 4 WAT): 0 (0- 24% control)
- post-emergence herbicidal activity index (Wild Buckwheat; 5.6 kg/h, 4 WAT): 2 (50-74% control)
- post-emergence herbicidal activity index (Crabgrass; 0.28 kg/h, 2 WAT): 0 (0- 24% control)
- post-emergence herbicidal activity index (Crabgrass; 1.12 kg/h, 4 WAT): 2 (50-74% control)
- post-emergence herbicidal activity index (Crabgrass; 5.6 kg/h, 4 WAT): 4 (100% control)
- post-emergence herbicidal activity index (Rice; 0.28 kg/h, 2 WAT): 0 (0- 24% control)
- post-emergence herbicidal activity index (Rice; 1.12 kg/h, 4 WAT): 0 (0- 24% control)
- post-emergence herbicidal activity index (Rice; 5.6 kg/h, 4 WAT): 1 (25-49% control)
- post-emergence herbicidal activity index (Morningglory [7]; Table I, 5.6 kg/h, 4 WAT): 2 (50-74% control)
- post-emergence herbicidal activity index (Morningglory [7]; Table I, 11.2 kg/h, 4 WAT): 2 (50-74% control)
- post-emergence herbicidal activity index (Morningglory [7]; Table II, 0.28 kg/h, 2 WAT): 0 (0- 24% control)
- post-emergence herbicidal activity index (Morningglory [7]; Table II, 1.12 kg/h, 4 WAT): 0 (0- 24% control)
- post-emergence herbicidal activity index (Morningglory [7]; Table II, 5.6 kg/h, 4 WAT): 2 (50-74% control)
- post-emergence herbicidal activity index (Lambsquarters [8]; Table I, 5.6 kg/h, 4 WAT): 3 (75-99% control)
- post-emergence herbicidal activity index (Lambsquarters [8]; Table I, 11.2 kg/h, 4 WAT): 3 (75-99% control)
- post-emergence herbicidal activity index (Lambsquarters [8]; Table II, 0.28 kg/h, 2 WAT): 0 (0- 24% control)
- post-emergence herbicidal activity index (Lambsquarters [8]; Table II, 1.12 kg/h, 4 WAT): 3 (75-99% control)
- post-emergence herbicidal activity index (Lambsquarters [8]; Table II, 5.6 kg/h, 4 WAT): 3 (75-99% control)
- post-emergence herbicidal activity index (Hemp Sesbania; 0.28 kg/h, 2 WAT): 0 (0- 24% control)
- post-emergence herbicidal activity index (Hemp Sesbania; 1.12 kg/h, 4 WAT): 0 (0- 24% control)
- post-emergence herbicidal activity index (Hemp Sesbania; 5.6 kg/h, 4 WAT): 1 (25-49% control)
- post-emergence herbicidal activity index (Johnsongrass [9]; 5.6 kg/h): 2 (50-74% control)
- post-emergence herbicidal activity index (Johnsongrass [9]; 11.2 kg/h): 0 (0- 24% control)
- post-emergence herbicidal activity index (Yellow Nutsedge [10]; 5.6 kg/h): 0 (0- 24% control)
- post-emergence herbicidal activity index (Yellow Nutsedge [10]; 11.2 kg/h): 1 (25-49% control)
- post-emergence herbicidal activity index (Barnyardgrass [11]; Table I, 5.6 kg/h, 4 WAT): 2 (50-74% control)
- post-emergence herbicidal activity index (Barnyardgrass [11]; Table I, 11.2 kg/h, 4 WAT): 2 (50-74% control)
- post-emergence herbicidal activity index (Barnyardgrass [11]; Table II, 0.28 kg/h, 2 WAT): 0 (0- 24% control)
- post-emergence herbicidal activity index (Barnyardgrass [11]; Table II, 1.12 kg/h, 4 WAT): 0 (0- 24% control)
- post-emergence herbicidal activity index (Barnyardgrass [11]; Table II, 5.6 kg/h, 4 WAT): 4 (100% control)
- pre-emergent herbicidal activity index (Cocklebur [12]): 0 (0-24% control)
- pre-emergent herbicidal activity index (Canada Thistle [13]): 3 (75-100% control)
- pre-emergent herbicidal activity index (Quackgrass [14]): 1 (25-49% control)
- pre-emergent herbicidal activity index (Velvetleaf [15]): 0 (0-24% control)
- pre-emergent herbicidal activity index (Downy Brome [16]): 0 (0-24% control)
- pre-emergent herbicidal activity index (Smartweed [17]): 0 (0-24% control)
- pre-emergent herbicidal activity index (Morningglory [18]): 0 (0-24% control)
- pre-emergent herbicidal activity index (Lambsquarters [19]): 0 (0-24% control)
- pre-emergent herbicidal activity index (Johnsongrass [20]): 0 (0-24% control)
- pre-emergent herbicidal activity index (Yellow Nutsedge [21]): 0 (0-24% control)
- pre-emergent herbicidal activity index (Barnyardgrass [22]): 0 (0-24% control)
